The record followed here is patent US20090062361A1, “THERAPEUTIC HYDANTOINS” (ALLERGAN, INC., priority 2007, published 2009).

For data set [1], the system named is normotensive dogs. Kind of data set: Intraocular pressure and ocular surface hyperemia in normotensive dogs. In kind it is in vivo. The note with it: 0.003%, once daily for 5 days. The procedure:
(§1) U.S. Pat. No. 7,091,231 describes the methods used to carry out the tests reported below.
(§2) Isopropyl 5-(3-(3-(4-(1-hydroxyhexyl)phenyl)-2,5-dioxoimidazolidin-4-yl)propyl)thiophene-2-carboxylate (31) was tested in normotensive dogs at 0.003%, dosing once daily for 5 days. The maximum intraocular pressure (IOP) decrease from baseline was 7.7 mmHg (45%) at 102 h; the maximum ocular surface hyperemia (OSH) score was 2.5 at 26 h. This compound was also tested in laser-induced hypertensive monkeys, using one single day dose. At 0.003%, the maximum IOP decrease from baseline was 23 mmHg (53%) at 24 h.
(§3) Isopropyl 5-(3-(3-(4-hexanoylphenyl)-2,5-dioxoimidazolidin-4-yl)propyl)thiophene-2-carboxylate (32) was tested in normotensive dogs at 0.003%, dosing once daily for 5 days. The maximum intraocular pressure (IOP) decrease from baseline was 8.9 mmHg (48%) at 54 h; the maximum ocular surface hyperemia (OSH) score was 2.3 at 54 h. This compound was also tested in laser-induced hypertensive monkeys, using one single day dose. At 0.003%, the maximum IOP decrease from baseline was 19 mmHg (49%) at 24 h.

Data set [2] relates to laser-induced hypertensive monkeys. Kind of data set: Intraocular pressure in laser-induced hypertensive monkeys. In kind it is in vivo. The note with it: 0.003%, one single day dose, at 24 h. The procedure: as §1, §2, §3
Data set [3] concerns the target T1, EP2 (Homo sapiens, UniProt P43116). Nature of the data set: EP2 flipr functional assay. Format: cell-based. From the text:
(§4) United States Patent Application Publication No. 20070129552, incorporated by reference herein, describes the methods used to obtain the in vitro data in the table below.

Data set [4] deals with T1, EP2. Nature of the data set: EP2 binding (Ki).
Excerpt: as §4

In data set [5] the target is T2, EP4 (Homo sapiens, UniProt P35408). Kind of data set: EP4 binding (KI).
Excerpt: as §4

In data set [6] the target is T3, hEP3A (Homo sapiens, UniProt P43115).
T3 sequence (P43115 1-390): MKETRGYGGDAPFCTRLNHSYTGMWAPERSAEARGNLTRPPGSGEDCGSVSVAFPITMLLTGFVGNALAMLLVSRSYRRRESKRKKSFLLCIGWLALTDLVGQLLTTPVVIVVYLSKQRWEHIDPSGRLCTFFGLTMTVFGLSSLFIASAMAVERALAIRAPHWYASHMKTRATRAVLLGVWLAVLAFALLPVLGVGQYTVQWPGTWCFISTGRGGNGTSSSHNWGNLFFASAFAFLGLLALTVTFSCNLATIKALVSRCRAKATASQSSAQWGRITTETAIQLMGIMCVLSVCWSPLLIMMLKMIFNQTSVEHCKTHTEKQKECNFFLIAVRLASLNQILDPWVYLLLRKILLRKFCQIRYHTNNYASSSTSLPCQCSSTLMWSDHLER
Nature of the data set: Other receptors functional assay, hEP3A. Format: cell-based.
Excerpt: as §4

For data set [7], the target named is T4, hDP (Homo sapiens, UniProt Q13258).
T4 sequence (Q13258 1-359): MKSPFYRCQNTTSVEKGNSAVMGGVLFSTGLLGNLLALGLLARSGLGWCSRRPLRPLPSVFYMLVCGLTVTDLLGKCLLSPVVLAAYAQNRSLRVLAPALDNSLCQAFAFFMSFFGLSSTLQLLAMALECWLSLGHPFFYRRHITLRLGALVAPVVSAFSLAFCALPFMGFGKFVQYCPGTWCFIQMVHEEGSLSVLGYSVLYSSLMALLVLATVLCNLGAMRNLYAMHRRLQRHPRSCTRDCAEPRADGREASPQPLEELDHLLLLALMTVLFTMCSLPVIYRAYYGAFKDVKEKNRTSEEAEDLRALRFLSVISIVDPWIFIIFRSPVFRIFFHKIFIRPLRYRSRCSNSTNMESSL
Kind of data set: Other receptors functional assay, hDP. Format: cell-based.
Excerpt: as §4

In data set [8] the target is T2, EP4. Kind of data set: EP4 flipr functional assay. In kind it is cell-based.
Excerpt: as §4

SMILES strings stand for the structures.

T2 sequence (P35408 whole entry): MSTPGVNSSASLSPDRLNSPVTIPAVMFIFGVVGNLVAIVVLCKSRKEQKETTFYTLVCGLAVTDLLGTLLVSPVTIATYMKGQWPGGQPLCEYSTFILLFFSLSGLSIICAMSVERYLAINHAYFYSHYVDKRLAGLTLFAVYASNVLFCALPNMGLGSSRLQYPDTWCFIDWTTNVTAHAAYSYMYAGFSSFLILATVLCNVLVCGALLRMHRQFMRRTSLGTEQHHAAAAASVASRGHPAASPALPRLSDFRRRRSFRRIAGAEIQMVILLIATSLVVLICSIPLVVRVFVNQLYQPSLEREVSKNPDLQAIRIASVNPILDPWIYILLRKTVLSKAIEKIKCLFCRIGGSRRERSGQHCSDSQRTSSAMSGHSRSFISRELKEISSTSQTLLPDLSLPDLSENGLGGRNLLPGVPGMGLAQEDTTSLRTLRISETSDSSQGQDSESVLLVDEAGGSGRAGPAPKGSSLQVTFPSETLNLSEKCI
T1 sequence (P43116 whole entry): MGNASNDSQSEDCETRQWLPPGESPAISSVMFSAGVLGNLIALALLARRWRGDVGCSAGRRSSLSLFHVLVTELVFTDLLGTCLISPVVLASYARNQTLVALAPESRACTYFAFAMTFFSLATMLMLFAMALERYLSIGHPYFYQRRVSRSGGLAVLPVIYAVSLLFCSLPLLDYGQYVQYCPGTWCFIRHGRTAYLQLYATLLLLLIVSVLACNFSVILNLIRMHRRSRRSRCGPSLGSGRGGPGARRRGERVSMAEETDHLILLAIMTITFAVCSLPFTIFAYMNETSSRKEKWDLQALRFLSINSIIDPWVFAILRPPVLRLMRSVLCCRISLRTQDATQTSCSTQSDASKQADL

As to `CCCCCC(=O)c1ccc(N2C(=O)NC(=O)C2CCCc2ccc(C(=O)OC(C)C)s2)cc1` (stereo not shown) [Example 32, Isopropyl 5-(3-(3-(4-hexanoylphenyl)-2,5-dioxoimidazolidin-4-yl)propyl)thiophene-2-carboxylate], in data set [1] (at 54 h), the “maximum intraocular pressure (IOP) decrease from baseline” value amounted to 8.9 mmHg, the “maximum intraocular pressure (IOP) decrease from baseline (percent)” value was 48% and the “maximum ocular surface hyperemia (OSH) score” value is 2.3. For the same compound, in data set [2], the “maximum IOP decrease from baseline” value came to 19 mmHg and the “maximum IOP decrease from baseline (percent)” value is 49%.
Take `CCCCCC(O)c1ccc(N2C(=O)NC(=O)C2CCCc2ccc(C(=O)OC(C)C)s2)cc1` (stereo not shown) [Example 31, Isopropyl 5-(3-(3-(4-(1-hydroxyhexyl)phenyl)-2,5-dioxoimidazolidin-4-yl)propyl)thiophene-2-carboxylate]: in data set [1] (at 26 h), the “maximum ocular surface hyperemia (OSH) score” value was found to be 2.5. Moreover, in data set [1] (at 102 h), the “maximum intraocular pressure (IOP) decrease from baseline” value is reported as 7.7 mmHg and the “maximum intraocular pressure (IOP) decrease from baseline (percent)” value came out at 45%. In addition, in data set [2], the “maximum IOP decrease from baseline” value came to 23 mmHg and the “maximum IOP decrease from baseline (percent)” value is given as 53%.
Broadly, the EC50 is the concentration needed to bring the measured effect to its halfway point. The low end stands for higher potency in that assay, the high end for lower potency in that assay. In general, Ki refers to a measure of affinity in units of concentration, obtained from inhibition or displacement. Low readings indicate tighter binding, high ones weaker binding. `CCCCC[C@H](O)c1ccc(N2C(=O)NC(=O)[C@@H]2CCCc2ccc(C(=O)O)s2)cc1` [Example 7, 5-(3-((S)-3-(4-((S)-1-hydroxyhexyl)phenyl)-2,5-dioxoimidazolidin-4-yl)propyl)thiophene-2-carboxylic acid]: the values for the EC50 in data set [3], in data set [6] and in data set [7] were 4 nM, 5 nM and > 10000 nM, respectively. The Ki in data set [4] was 2 nM; in data set [5], 5070 nM.
Turning to `CCCCC[C@@H](O)c1ccc(N2C(=O)NC(=O)[C@@H]2CCCc2ccc(C(=O)O)s2)cc1` [Example 10, 5-(3-((S)-3-(4-((R)-1-hydroxyhexyl)phenyl)-2,5-dioxoimidazolidin-4-yl)propyl)thiophene-2-carboxylic acid], the EC50 came to 1 nM in data set [3], 2000 nM in data set [8], 15 nM in data set [6] and 19300 nM in data set [7]. Further, the results for the Ki in data set [4] and in data set [5] were 1 nM and 7210 nM, respectively.
For the compound `CCCCC[C@H](O)c1ccc(N2C(=O)NC(=O)[C@H]2CCCc2ccc(C(=O)O)s2)cc1` [Example 8, 5-(3-((R)-3-(4-((S)-1-hydroxyhexyl)phenyl)-2,5-dioxoimidazolidin-4-yl)propyl)thiophene-2-carboxylic acid], the values for the EC50 in data set [3], in data set [6] and in data set [7] were 23 nM, 29 nM and > 10000 nM, respectively. Also, the Ki in data set [4] amounted to 4 nM; in data set [5], 7190 nM.
`CCCCCC(=O)c1ccc(N2C(=O)NC(=O)C2CCCc2ccc(C(=O)O)s2)cc1` (stereo not shown) [Example 1, 5-(3-(3-(4-hexanoylphenyl)-2,5-dioxoimidazolidin-4-yl)propyl)thiophene-2-carboxylic acid]: the concentration giving a half-maximal response (EC50) is 17 nM in data set [3], 17500 nM in data set [8], 131 nM in data set [6] and 8810 nM in data set [7]. The Ki in data set [4] is 4.5 nM; in data set [5], 3240 nM.
As to `CCCCC[C@H](O)c1ccc(N2C(=O)NC(=O)C2CCCc2ccc(C(=O)O)s2)cc1` (stereo in doubt) [Example 2, 5-(3-(3-(4-(1-hydroxyhexyl)phenyl)-2,5-dioxoimidazolidin-4-yl)propyl)thiophene-2-carboxylic acid], the EC50 in data set [3] amounted to 3.5 nM; in data set [6] it was 10 nM; in data set [7], 17400 nM. Moreover, the Ki was 5 nM in data set [4] and > 10000 nM in data set [5].
